Experimental data taken from patent publication US20250326933A1, “SOLID COMPOSITION OF INDOCYANINE GREEN AND SODIUM FLUORESCEIN” (ICROM Srl, priority 2021, published 2025).

How the values were obtained:
[1] = Solubility in water evaluated by filtration of the solution on a syringe filter; assay type: physicochemical
[2] = Stability of the compounds of formula (IA) and (IB) and of their solid composition by HPLC; assay type: physicochemical; conditions: for Stability by HPLC as such and after freeze-drying: (IA) with or without iodide
Method: The formulations from 13 to 18 and the compounds used for the preparation thereof were analysed with the following analytical method. The analysis confirms that the purity of IA >99.5% injected as such and the stability of the formulation after freeze-drying, evaluated based on the fact that there is no other peak in the chromatogram except for Ia and Ib.
Sample solution: 1.5 mg/ml in methanol. Inject immediately after preparing the solution. The mixtures of formula (IA) and (IB) described in Table 2 were prepared and then appropriately diluted and injected in HPLC to evaluate the profile at T0.
The same mixtures were re-prepared exactly as described in the experimental part, dry frozen and controlled in HPLC after freeze-drying, 7 days later. During these 7 days the samples were stored inside their amber glass vials in a protective atmosphere at room temperature. The freeze-dried products were dissolved in water at the same dilution as the not freeze-dried samples.
The stability of the freeze-dried powders stored in the vials was evaluated using HPLC even after 6 months. The freeze-dried products are stable, even without the presence of sodium iodide, formulation 9.
The reconstituted solution was stable if stored at 4-10° C. for at least 24 hours (formulations 1, 3, 5 and 7).

[3] = aqueous solution; cited from earlier work
[4] = after intravenous administration; cited from earlier work
[5] = freeze-dried, 10 mg/ml in water
[6] = not freeze-dried, 5 mg/ml in water
[7] = not freeze-dried, 10 mg/ml in water

Compound	Filtration on 0.45 μm syringe filter: Pressure ([1]; freeze-dried, 5 mg/ml in water)	Filtration on 0.45 μm syringe filter: ml filtered ([1]; freeze-dried, 5 mg/ml in water) [mL]	Filtration on 0.45 μm syringe filter: Pressure [1, 5]	Filtration on 0.45 μm syringe filter: ml filtered [1, 5] [mL]	Filtration on 0.45 μm syringe filter: Pressure [1, 6]	Filtration on 0.45 μm syringe filter: ml filtered [1, 6] [mL]	Filtration on 0.45 μm syringe filter: Pressure [1, 7]	Filtration on 0.45 μm syringe filter: ml filtered [1, 7] [mL]	Stability by HPLC as such and after freeze-drying [2]	Degradation by freeze-drying (HPLC) ([2]; as such or in mixture with (IB), with or without sodium iodide)	Decomposition when dissolved in water [3]	Time to complete removal by the kidneys [4] [h]
CC1(C)C(/C=C/C=C/C=C/C=C2\N(CCCCS(=O)(=O)[O-])c3ccc4ccccc4c3C2(C)C)=[N+](CCCCS(=O)(=O)[O-])c2ccc3ccccc3c21.[Na+] [069/079]	Low	10	Low	10	Block	0	Block	0	–	–	–	–
CC1(C)C(/C=C/C=C/C=C/C=C2\N(CCCCS(=O)(=O)[O-])c3ccc4ccccc4c3C2(C)C)=[N+](CCCCS(=O)(=O)[O-])c2ccc3ccccc3c21.[Na+] [compound of formula (IA), 1H-benz[e]indole, 2-[7-[1,3-dihydro-1,1-dimethyl-3-(4-sulfobutyl)-2H-benz[e]indol-2-ylidene]-1,3,5-heptatrienyl]-1,1-dimethyl-3-(4-sulfobutyl) hydroxide, inner salt, sodium salt]	–	–	–	–	–	–	–	–	stable	does not degrade	non-detectable decomposition for a few hours	–
O=C([O-])c1ccccc1-c1c2ccc(=O)cc-2oc2cc([O-])ccc12.[Na+].[Na+] [compound of formula (IB), sodium fluorescein]	–	–	–	–	–	–	–	–	stable	–	–	24 to 36
